The test system of one assay is HSP72 in U2OS cells. In words: Cell-based ELISA (Cellisa) assay, U2OS cells: inhibition of 17-AAG-induced HSP72. As to conditions: Homo sapiens; U2OS cells (Examples 1-168). As for the experimental part: U2OS cells (5-8×10^4 cells/mL) or SK-OV-3 cells (5-8×10^4 cells/mL) were seeded into 96-well plates and incubated at 37° C. for 48 h. Compounds were then added at a range of concentrations and incubated for 1 h before addition of 17-AAG (250 nM). Cells were then incubated for 18 h. The medium was removed washed 2× with PBS and cells were then fixed with fixing solution (4% paraformaldehyde, 0.3% TritonX-100 in PBS) for 30 min at 4° C. The plates were then washed 2× with PBS before blocking with 5% milk for 30 min at 37° C. After washing the plates 4× with 0.1% Tween-20/deionised water, HSP72 antibody (SPA-810, Enzo Life) was added for 1.5 h at 37° C. Following 4× washes, the plates were incubated with europium-labelled anti-mouse antibody (0.6 ug/ml) in Delfia assay buffer (Perkin Elmer) for 1 h at 37° C. After washing the plates, Delfia enhancement solution was added, shaken for 10 min before reading in the Envision plate reader (Perkin-Elmer) with excitation at 340 nm and emission at 615 nm. The plates were washed again before protein determination using the bicinchoninic acid assay (BCA assay, Pierce Biotechnology). The europium counts were normalised for the amount of protein in each well. The 50% inhibitory concentration value of the compound was then calculated.
(In general: ELISA stands for enzyme-linked immunosorbent assay.)

The subject of the next assay is U2OS cells. Briefly: Titre Blue cell viability assay, U2OS cells. As to conditions: Homo sapiens, U2OS. The class given is cell-based.

The IC50 is the concentration that gives 50% inhibition. Higher therefore signals weaker potency. For the compound `Cc1ccc(NC(=O)c2ccc3c(c2)OCCO3)cc1NC(=O)c1ccc2nc(CN(C)C)ccc2c1` [Example 71, N-(5-(2,3-dihydrobenzo[b][1,4]dioxine-6-carboxamido)-2-methylphenyl)-2-((dimethylamino)methyl)quinoline-6-carboxamide], the IC50 in the assay with HSP72 in U2OS cells was 0.082 µM; with U2OS cells it was 0.118 µM.
For `COCCOc1ccc2cc(C(=O)Nc3cc(NC(=O)c4ccc5c(c4)OCCO5)ccc3C)ccc2n1` [Example 3, N-(5-(2,3-dihydrobenzo[b][1,4]dioxine-6-carboxamido)-2-methylphenyl)-2-(2-methoxyethoxy)quinoline-6-carboxamide], the figures for the half-inhibitory concentration (IC50) in the assay with HSP72 in U2OS cells and in the assay on U2OS cells were 0.007 µM and 0.029 µM, respectively.
The like results for `COc1cc(C(=O)Nc2cc(NC(=O)c3ccc4c(c3)OCCO4)ccc2C)ccc1Br` [Example 41, N-(3-(4-bromo-3-methoxybenzamido)-4-methylphenyl)-2,3-dihydrobenzo[b][1,4]dioxine-6-carboxamide] were, in that order, 0.104 µM and 0.154 µM.
The like results for `Cc1ccc(NC(=O)c2ccc3c(c2)OCCO3)cc1NC(=O)c1ccc2nc(OCC(C)N3CCCC3)ccc2c1` (stereo not shown) [Example 68, N-(5-(2,3-dihydrobenzo[b][1,4]dioxine-6-carboxamido)-2-methylphenyl)-2-(2-(pyrrolidin-1-yl)propoxy)quinoline-6-carboxamide] were, in that order, 0.041 µM and 0.012 µM.
As to `COc1ccc2cc(C(=O)Nc3cc(NC(=O)c4ccc5c(c4)OCCO5)ccc3C)ccc2n1` [Example 29, N-(5-(2,3-dihydrobenzo[b][1,4]dioxine-6-carboxamido)-2-methylphenyl)-2-methoxyquinoline-6-carboxamide], the figures for the IC50 in the assay on HSP72 in U2OS cells and in the assay on U2OS cells were 0.499 µM and 0.626 µM, respectively.
Turning to `Cc1ccc(NC(=O)c2ccc3c(c2)OCCO3)cc1NC(=O)c1ccc2nc(OCCN3CC[C@H](F)C3)ccc2c1` [Example 65, (S)—N-(5-(2,3-dihydrobenzo[b][1,4]dioxine-6-carboxamido)-2-methylphenyl)-2-(2-(3-fluoropyrrolidin-1-yl)ethoxy)quinoline-6-carboxamide], the figures for the IC50 in the assay with HSP72 in U2OS cells and in the assay with U2OS cells were 0.029 µM and 0.007 µM, respectively.
As to `Cc1cc(NCCN(C)C)c2cc(C(=O)Nc3cc(NC(=O)c4ccc5c(c4)OCCO5)ccc3C)ccc2n1` [Example 110, N-(5-(2,3-dihydrobenzo[b][1,4]dioxine-6-carboxamido)-2-methylphenyl)-4-(2-(dimethylamino)ethylamino)-2-methylquinoline-6-carboxamide], the IC50 in the assay on HSP72 in U2OS cells is 0.41 µM; with U2OS cells it was 0.168 µM.
Consider `Cc1ccc(NC(=O)c2ccc3c(c2)OCCO3)cc1NC(=O)c1ccnc(-n2cncn2)c1` [Example 96, N-(5-(2,3-dihydrobenzo[b][1,4]dioxine-6-carboxamido)-2-methylphenyl)-2-(1H-1,2,4-triazol-1-yl)isonicotinamide], for which the IC50 in the assay on HSP72 in U2OS cells was 4.45 µM; in the assay on U2OS cells, 1.35 µM.
The like results for `Cc1ccc(NC(=O)c2ccc3c(c2)OCCO3)cc1NC(=O)c1cnc2cnccc2c1` [Example 44, N-(5-(2,3-dihydrobenzo[b][1,4]dioxine-6-carboxamido)-2-methylphenyl)-1,7-naphthyridine-3-carboxamide] were, in that order, 0.011 µM and 0.024 µM.
On to `Cc1ccc(NC(=O)c2ccc3c(c2)OCCO3)cc1NC(=O)c1ccc2c(c1)COC2` [Example 15, N-(3-(1,3-dihydroisobenzofuran-5-carboxamido)-4-methylphenyl)-2,3-dihydrobenzo[b][1,4]dioxine-6-carboxamide], for which the IC50 in the assay on HSP72 in U2OS cells turned out to be 0.076 µM; with U2OS cells, 0.075 µM.
On to `Cc1ccc(NC(=O)c2ccc3c(c2)OCCO3)cc1NC(=O)c1ccc2nc(CN3CCN(C)CC3)ccc2c1` [Example 70, N-(5-(2,3-dihydrobenzo[b][1,4]dioxine-6-carboxamido)-2-methylphenyl)-2-((4-methylpiperazin-1-yl)methyl)quinoline-6-carboxamide], for which the IC50 in the assay with HSP72 in U2OS cells amounted to 0.059 µM; in the assay on U2OS cells, 0.092 µM.
As for `Cc1ccc(NC(=O)c2ccc3c(c2)OCCO3)cc1NC(=O)c1ccc2ncncc2c1` [Example 10, N-(5-(2,3-dihydrobenzo[b][1,4]dioxine-6-carboxamido)-2-methylphenyl)quinazoline-6-carboxamide], the concentration for half-maximal inhibition (IC50) in the assay with HSP72 in U2OS cells is 0.029 µM; with U2OS cells, 0.015 µM.
Take `Cc1ccc(NC(=O)c2ccc3c(c2)OCCO3)cc1NC(=O)c1ccc2nc(OCCN3CCC3)ccc2c1` [Example 60, 2-(2-(azetidin-1-yl)ethoxy)-N-(5-(2,3-dihydrobenzo[b][1,4]dioxine-6-carboxamido)-2-methylphenyl)quinoline-6-carboxamide]: the IC50 in the assay on HSP72 in U2OS cells came out at 0.016 µM; with U2OS cells, 0.013 µM.
On to `C=CCc1cccc2ncc(C(=O)Nc3cc(NC(=O)c4ccc5c(c4)OCCO5)ccc3C)cc12` [Example 161, 5-allyl-N-(5-(2,3-dihydrobenzo[b][1,4]dioxine-6-carboxamido)-2-methylphenyl)quinoline-3-carboxamide], for which the figures for the IC50 in the assay on HSP72 in U2OS cells and in the assay on U2OS cells were 0.911 µM and 0.557 µM, respectively.
The like results for `Cc1ccc(NC(=O)c2ccc3c(c2)OCCO3)cc1NC(=O)c1ccc2c(c1)CS(=O)(=O)N2C` [Example 168, N-(5-(2,3-dihydrobenzo[b][1,4]dioxine-6-carboxamido)-2-methylphenyl)-1-methyl-1,3-dihydrobenzo[c]isothiazole-5-carboxamide 2,2-dioxide] were, in that order, 0.014 µM and 0.019 µM.
The like results for `O=C(Nc1ccc(Br)c(NC(=O)c2ccc3ncccc3c2)c1)c1ccc2c(c1)OCCO2` [Example 138, N-(2-bromo-5-(2,3-dihydrobenzo[b][1,4]dioxine-6-carboxamido)phenyl)quinoline-6-carboxamide] were, in that order, 0.031 µM and 0.01 µM.
The like results for `Cc1ccc(NC(=O)c2ccc3c(c2)OCCO3)cc1NC(=O)c1cc(F)c2ncccc2c1` [Example 136, N-(5-(2,3-dihydrobenzo[b][1,4]dioxine-6-carboxamido)-2-methylphenyl)-8-fluoroquinoline-6-carboxamide] were, in that order, 0.014 µM and 0.004 µM.
As for `Cc1ccc(NC(=O)c2ccc3c(c2)OCCO3)cc1NC(=O)c1ccc2nc(OCCN3CCOCC3)ccc2c1` [Example 66, N-(5-(2,3-dihydrobenzo[b][1,4]dioxine-6-carboxamido)-2-methylphenyl)-2-(2-morpholinoethoxy)quinoline-6-carboxamide], the IC50 in the assay on HSP72 in U2OS cells turned out to be 0.03 µM; with U2OS cells, 0.04 µM.
The like results for `Cc1ccc(NC(=O)c2ccc3c(c2)OCCO3)cc1NC(=O)c1ccc2oc(=O)ccc2c1` [Example 4, N-(4-methyl-3-(2-oxo-2H-chromene-6-carboxamido)phenyl)-2,3-dihydrobenzo[b][1,4]dioxine-6-carboxamide] were, in that order, 0.01 µM and 0.018 µM.
The like results for `Cc1ccc(NC(=O)c2ccc3c(c2)OCCO3)cc1NC(=O)c1ccc2nc(OCCCN3CCCCC3)ccc2c1` [Example 52, N-(5-(2,3-dihydrobenzo[b][1,4]dioxine-6-carboxamido)-2-methylphenyl)-2-(3-(piperidin-1-yl)propoxy)quinoline-6-carboxamide] were, in that order, 0.012 µM and 0.006 µM.
The like results for `COCc1ccc(NC(=O)c2ccc3c(c2)OCCO3)cc1NC(=O)c1ccc2nc(C)ccc2c1` [Example 166, N-(5-(2,3-dihydrobenzo[b][1,4]dioxine-6-carboxamido)-2-(methoxymethyl)phenyl)-2-methylquinoline-6-carboxamide] were, in that order, 0.298 µM and 0.068 µM.
In the case of `COc1ccc(C(=O)Nc2cc(NC(=O)c3ccc4c(c3)OCCO4)ccc2C)cc1Cl` [Example 28, N-(3-(3-chloro-4-methoxybenzamido)-4-methylphenyl)-2,3-dihydrobenzo[b][1,4]dioxine-6-carboxamide], the IC50 with HSP72 in U2OS cells was 0.416 µM; with U2OS cells it was 0.415 µM.
`Cc1ccc(NC(=O)c2ccc3c(c2)OCCO3)cc1NC(=O)c1ccc2nc(COCC(C)C)ccc2c1` [Example 151, N-(5-(2,3-dihydrobenzo[b][1,4]dioxine-6-carboxamido)-2-methylphenyl)-2-(isobutoxymethyl)quinoline-6-carboxamide]: the IC50 was 0.1 µM in the assay on HSP72 in U2OS cells and 0.026 µM with U2OS cells.
The like results for `Cc1ccc(NC(=O)c2ccc3c(c2)OCCO3)cc1NC(=O)c1ccc2nc(OCCCN3CCCC3)ccc2c1` [Example 56, N-(5-(2,3-dihydrobenzo[b][1,4]dioxine-6-carboxamido)-2-methylphenyl)-2-(3-(pyrrolidin-1-yl)propoxy)quinoline-6-carboxamide] were, in that order, 0.013 µM and 0.003 µM.
The like results for `Cc1ccc(NC(=O)c2ccc3c(c2)OCCO3)cc1NC(=O)c1ccc2nc(OCCN3CCCC3C)ccc2c1` (stereo not shown) [Example 61, N-(5-(2,3-dihydrobenzo[b][1,4]dioxine-6-carboxamido)-2-methylphenyl)-2-(2-(2-methylpyrrolidin-1-yl)ethoxy)quinoline-6-carboxamide] were, in that order, 0.016 µM and 0.018 µM.
As for `Cc1ccc(NC(=O)c2ccc3c(c2)OCCO3)cc1NC(=O)c1ccc(O)cc1` [Example 93, N-(3-(4-hydroxybenzamido)-4-methylphenyl)-2,3-dihydrobenzo[b][1,4]dioxine-6-carboxamide], the IC50 is 2.46 µM in the assay with HSP72 in U2OS cells and 0.798 µM in the assay on U2OS cells.

These data come from patent US9701664B2, “Fused 1,4-dihydrodioxin derivatives as inhibitors of heat shock transcription factor 1” (Cancer Research Technology Limited, priority 2013, dated 2017).
